From ChEMBL document CHEMBL1773047, “Antiparasitic compounds from Cupania cinerea with activities against Plasmodium falciparum and Trypanosoma brucei rhodesiense” (J Nat Prod, 2011) come the findings set out here.

The subject of one assay is Plasmodium falciparum. The assay is described as follows: Antiplasmodial activity against chloroquine- and pyrimethamine-resistant Plasmodium falciparum K1 infected in human red blood cells assessed as [3H]hypoxanthine incorporation after 48 hrs by liquid scintillation counting. In kind it is functional, organism-based.
Assay [1] relates to Trypanosoma brucei rhodesiense. The assay is described as follows: Antiparasitic activity against Trypanosoma brucei rhodesiense STIB 900 bloodstream form after 72 hrs by microplate fluorimetry. The class given is functional, organism-based. The conditions noted are these: STIB 900, 72 h.
In another assay the test system is L6. The assay can be described thus: Cytotoxicity against rat L6 cells after 72 hrs by microplate fluorimetry. The class given is cell-based. The conditions noted are these: L6, 72 h.

A value given as a limit tells only on which side of the number the result lay.

The IC50 is the concentration at which inhibition is half-maximal.

`CC(C)=CCC[C@H](C)[C@@H]1C=C[C@](C)(O)[C@@H](O)C1`: the IC50 is above 20 µM in the assay with Plasmodium falciparum, 61.3 µM in assay [1] and above 90 µM in the assay with L6.
Consider `CC(C)[C@@]12CC[C@]3(C)[C@H]4CC[C@@H]5[C@@]6(C)CCC(=O)C(C)(C)[C@@H]6CC[C@@]5(C)[C@]4(C)CC[C@@]13O2`, for which the IC50 with Plasmodium falciparum was above 10 µM; in assay [1], above 90 µM; in the assay with L6, above 90 µM.
On to `CC1(C)CC[C@]2(C)CC=C3[C@]4(C)CC[C@H]5C(C)(C)C(=O)CC[C@]5(C)[C@H]4CC[C@@]3(C)[C@@H]2C1` [TARAXERONE], for which the IC50 in the assay with Plasmodium falciparum was above 10 µM; in assay [1], above 90 µM; with L6, above 90 µM.
Turning to `CC(C)=CCCC(C)C1CC=C(C)C(O)C1O` (configuration not stated), the IC50 in the assay with Plasmodium falciparum was above 20 µM; in assay [1], 38.2 µM; with L6, above 90 µM.
Regarding `C=C(C)[C@@H]1CC[C@]2(CO)CC[C@]3(C)[C@H](CC[C@@H]4[C@@]5(C)CCC(=O)C(C)(C)[C@@H]5CC[C@]43C)[C@@H]12` [BETULONE], the IC50 in the assay with Plasmodium falciparum was found to be 3 µM; in assay [1] it was 18.9 µM; with L6 it was 22.2 µM.
As for `COc1cc2ccc(=O)oc2cc1O` [SCOPOLETIN], the IC50 in the assay with Plasmodium falciparum was above 25 µM; in assay [1], above 90 µM; in the assay with L6 it was above 90 µM.
On to `C=C(C)[C@@H]1CC[C@]2(C)CC[C@]3(C)[C@H](CC[C@@H]4[C@@]5(C)CCC(=O)C(C)(C)[C@@H]5CC[C@]43C)[C@@H]12` [LUPENONE], for which the IC50 with Plasmodium falciparum was 4.7 µM; in assay [1] it was above 90 µM; with L6 it was above 90 µM.
As for `C=C1CC[C@@H]2O[C@]2(C)CC[C@@H]2[C@@H]1CC2(C)C`, the IC50 was above 25 µM in the assay on Plasmodium falciparum, above 90 µM in assay [1] and above 90 µM in the assay with L6.
On to `CC1(C)OC(=O)CC[C@]2(C)[C@H]3CC[C@H]4[C@@](C)(CC[C@@]5(C)C(C)(C)CCC[C@]45C)O[C@]3(C)CC[C@@H]12` [CUPACINOXEPIN], for which the IC50 with Plasmodium falciparum is 8.7 µM; in assay [1], 71.6 µM; in the assay with L6 it was above 90 µM.
`COc1cc(C)c2c(=O)c3c(O)cc(OC)cc3oc2c1` [LICHEXANTHONE]: the IC50 in the assay on Plasmodium falciparum was above 20 µM; in assay [1] it was above 90 µM; in the assay with L6 it was 52.1 µM.
Turning to `CC(=O)OC[C@H]1O[C@@H](OC/C=C(\C)CC/C=C(\C)CC/C=C(\C)CCC=C(C)C)[C@H](O[C@@H]2O[C@@H](C)[C@H](OC(C)=O)[C@@H](OC(C)=O)[C@H]2OC(C)=O)[C@@H](O)[C@@H]1O` [CUPACINOSIDE], the IC50 amounted to 1.3 µM in the assay on Plasmodium falciparum, 4.6 µM in assay [1] and 11.6 µM in the assay with L6.
Regarding `CCCCCC(=O)Cc1cc(OC)cc(O)c1C(=O)Oc1cc(CC(=O)CCCCC)c(C(=O)OC)c(OC)c1` [GUSTASTATIN], the figures for the IC50 (with Plasmodium falciparum; in assay [1]; in the assay on L6) were above 9 µM, 19.4 µM and above 90 µM, respectively.
Taken in the same sequence, the figures for `CC(=O)O[C@@H]1[C@@H](OC(C)=O)[C@H](C)O[C@@H](O[C@H]2[C@H](OC/C=C(\C)CC/C=C(\C)CC/C=C(\C)CCC=C(C)C)O[C@H](CO)[C@@H](O)[C@@H]2O)[C@@H]1OC(C)=O` were 2.1 µM, 15.8 µM and 8.7 µM.
Taken in the same sequence, the figures for `CC1(C)CC[C@]2(C)CC=C3[C@]4(C)CC[C@H]5C(C)(C)[C@@H](O)CC[C@]5(C)[C@H]4CC[C@@]3(C)[C@@H]2C1` [TARAXEROL] were 8.5 µM, 10.5 µM and above 90 µM.
